ChEMBL document CHEMBL5150069, “Solid-Phase Synthesis of Cereblon-Recruiting Selective Histone Deacetylase 6 Degraders (HDAC6 PROTACs) with Antileukemic Activity” (J Med Chem, 2022)
Values belong to the compound of their own block, whether it stands above or below them. Calls of active or inactive are those of the source. The calls are words filed in the database; no cut-off is given here.

Tests used:
[1] = target: T1, Protein deacetylase HDAC6 (Homo sapiens, UniProt Q9UBN7); assay: Inhibition of recombinant full length N-terminal GST-tagged human HDAC6 (1 to 1215 residues) using Z-Lys(Ac)-AMC as substrate preincubated for 90 mins followed by trypsin addition and measured after 30 mins by fluorescence based microplate reader analysis
T1 sequence (Q9UBN7 whole entry): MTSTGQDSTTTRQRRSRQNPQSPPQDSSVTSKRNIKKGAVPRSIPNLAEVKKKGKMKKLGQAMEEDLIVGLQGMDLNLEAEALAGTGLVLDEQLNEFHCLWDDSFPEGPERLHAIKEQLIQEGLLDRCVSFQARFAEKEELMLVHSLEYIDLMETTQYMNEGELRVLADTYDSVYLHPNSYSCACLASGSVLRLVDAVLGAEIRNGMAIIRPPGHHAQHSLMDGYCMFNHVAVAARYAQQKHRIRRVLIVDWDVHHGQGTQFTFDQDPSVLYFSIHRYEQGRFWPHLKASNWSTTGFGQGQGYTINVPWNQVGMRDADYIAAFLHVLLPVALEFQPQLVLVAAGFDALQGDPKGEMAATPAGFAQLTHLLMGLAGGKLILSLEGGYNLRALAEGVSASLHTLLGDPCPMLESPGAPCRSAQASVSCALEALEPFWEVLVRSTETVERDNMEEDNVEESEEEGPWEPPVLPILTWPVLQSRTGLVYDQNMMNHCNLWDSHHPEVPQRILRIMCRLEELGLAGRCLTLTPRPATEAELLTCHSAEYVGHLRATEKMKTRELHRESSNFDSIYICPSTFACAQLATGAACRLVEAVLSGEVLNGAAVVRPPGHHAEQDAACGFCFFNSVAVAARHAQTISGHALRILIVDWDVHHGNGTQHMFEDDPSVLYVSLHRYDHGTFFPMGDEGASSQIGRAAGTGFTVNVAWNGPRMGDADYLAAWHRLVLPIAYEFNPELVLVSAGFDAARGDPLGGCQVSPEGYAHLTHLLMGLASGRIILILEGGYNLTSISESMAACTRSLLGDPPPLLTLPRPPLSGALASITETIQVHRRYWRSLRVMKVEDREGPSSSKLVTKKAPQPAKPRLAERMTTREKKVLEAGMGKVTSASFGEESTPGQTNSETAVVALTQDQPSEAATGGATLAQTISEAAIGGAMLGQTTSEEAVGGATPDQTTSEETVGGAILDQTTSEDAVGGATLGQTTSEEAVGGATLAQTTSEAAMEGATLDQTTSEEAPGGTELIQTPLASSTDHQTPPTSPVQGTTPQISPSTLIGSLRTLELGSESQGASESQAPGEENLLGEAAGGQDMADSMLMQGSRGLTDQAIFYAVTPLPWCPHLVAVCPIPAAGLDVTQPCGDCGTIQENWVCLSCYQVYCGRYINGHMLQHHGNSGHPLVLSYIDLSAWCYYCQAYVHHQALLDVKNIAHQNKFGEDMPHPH

Histone deacetylase 1 [2] = target: T2, Histone deacetylase 1 (Homo sapiens, UniProt Q13547); assay: Inhibition of recombinant full length C-terminal His/Flag-tagged human HDAC1 (1 to 482 residues) using Z-Lys(Ac)-AMC as substrate preincubated for 90 mins followed by trypsin addition and measured after 30 mins by fluorescence based microplate reader analysis
T2 sequence (Q13547 whole entry, the tested form may be a part): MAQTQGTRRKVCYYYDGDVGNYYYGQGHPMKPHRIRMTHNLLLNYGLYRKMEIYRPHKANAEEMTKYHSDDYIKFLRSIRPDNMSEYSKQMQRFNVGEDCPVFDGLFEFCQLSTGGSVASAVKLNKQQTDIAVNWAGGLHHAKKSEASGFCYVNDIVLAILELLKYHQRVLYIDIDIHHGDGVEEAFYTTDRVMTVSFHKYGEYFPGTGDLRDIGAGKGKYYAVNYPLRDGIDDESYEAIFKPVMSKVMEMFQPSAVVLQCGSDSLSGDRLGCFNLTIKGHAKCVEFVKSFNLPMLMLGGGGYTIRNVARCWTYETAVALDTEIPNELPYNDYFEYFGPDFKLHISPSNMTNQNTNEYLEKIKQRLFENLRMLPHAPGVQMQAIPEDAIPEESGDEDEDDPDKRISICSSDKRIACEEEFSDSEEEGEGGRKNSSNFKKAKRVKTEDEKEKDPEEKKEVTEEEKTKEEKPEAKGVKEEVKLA

[3] = target: T3, Protein deacetylase HDAC6 (Homo sapiens) (UniProt Q9UBN7); assay: Induction of Hitbit-fused HDAC6 degradation in human K562 cells at 1 uM after 5.5 to 7.5 hrs by NanoGlo HiBit lytic assay; assay type: cell-based; settings: time 5.5-7.5 hrs
T3 sequence (whole entry): T1 sequence (Q9UBN7 whole entry)

[4] = target: T3, Protein deacetylase HDAC6 (Homo sapiens); assay: Induction of HDAC6 degradation in human HL-60 cells assessed as maximum degradation after 6 hrs by Western immunoassay; assay type: cell-based
[5] = target: T1, Protein deacetylase HDAC6; assay: Induction of HDAC6 degradation in human HL-60 cells assessed as hyperacetylation of alpha-tubulin after 6 hrs by Western immunoassay; assay type: cell-based
[6] = target: T3, Protein deacetylase HDAC6 (Homo sapiens); assay: Induction of HDAC6 degradation in human U-266 cells at 100 to 1000 nM incubated for 24 hrs by Western blot analysis; assay type: cell-based; settings: dose 100-1000 nM
[7] = target: T1, Protein deacetylase HDAC6; assay: Induction of HDAC6 degradation in human HL-60 cells after 6 hrs by Western immunoassay; assay type: cell-based
[8] = target: T3, Protein deacetylase HDAC6 (Homo sapiens); assay: Induction of HDAC6 degradation in human HL-60 cells assessed as hyperacetylation of alpha-tubulin at 0.1 to 10 uM after 6 hrs by Western blot analysis; assay type: cell-based; settings: dose 0.1-10 µM
[9] = target: T3, Protein deacetylase HDAC6 (Homo sapiens); assay: Induction of HDAC6 degradation in human U-266 cells assessed as hyperacetylation of alpha-tubulin at 100 to 1000 nM incubated for 24 hrs by Western blot analysis; assay type: cell-based; settings: dose 100-1000 nM
[10] = target: T3, Protein deacetylase HDAC6 (Homo sapiens); assay: Induction of HDAC6 degradation in human HL-60 cells at 0.1 to 10 uM after 6 hrs by Western blot analysis; assay type: cell-based; settings: dose 0.1-10 µM
MOLM-13 [11] = assay: Induction of cell cycle arrest in human MOLM-13 cells assessed as reduction in G2/M phase population incubated for 48 hrs by PI staining based flow cytometry analysis; assay type: functional; settings: dose 8-24 µM, DDE = dose-dependent effect
[12] = target: T3, Protein deacetylase HDAC6 (Homo sapiens); assay: Induction of HDAC6 degradation in human HL-60 cells at 1 uM after 3 to 6 hrs by fluorescence microscopy analysis; assay type: cell-based; settings: time 3-6 hrs
Histone deacetylase 1 [13] = target: T2, Histone deacetylase 1; assay: Induction of HDAC1 degradation in human HL-60 cells assessed as hyperacetylation of histone H3 at 0.1 to 10 uM after 6 hrs by Western blot analysis; assay type: cell-based; settings: dose 0.1-10 µM
MOLM-13 [14] = assay: Induction of cell cycle arrest in human MOLM-13 cells assessed as increase in sub-G1 phase population at 24 uM incubated for 48 hrs by PI staining based flow cytometry analysis (reference value: […]); assay type: functional
MOLM-13 [15] = assay: Induction of cell cycle arrest in human MOLM-13 cells assessed as increase in sub-G1 phase population at 16 uM incubated for 48 hrs by PI staining based flow cytometry analysis (reference value: […]); assay type: functional
MOLM-13 [16] = assay: Induction of cell cycle arrest in human MOLM-13 cells assessed as increase in sub-G1 phase population incubated for 48 hrs by PI staining based flow cytometry analysis; assay type: functional; settings: dose 8-24 µM, DDE = dose-dependent effect
MOLM-13 [17] = assay: Induction of apoptosis in human MOLM-13 cells after 48 hrs by Annexin-V and PI staining based flow cytometry assay; assay type: functional, cell-based; settings: dose 8-24 µM, DDE = dose-dependent effect
[18] = target: T3, Protein deacetylase HDAC6 (Homo sapiens); assay: Induction of HDAC6 degradation in human HL-60 cells assessed as hyperacetylation of histone H3 at 1 uM after 24 hrs; assay type: cell-based
MOLM-13 [19] = assay: Induction of cell cycle arrest in human MOLM-13 cells assessed as increase in sub-G1 phase population at 8 uM incubated for 48 hrs by PI staining based flow cytometry analysis (reference value: […]); assay type: functional
[20] = target: T3, Protein deacetylase HDAC6 (Homo sapiens); assay: Induction of HDAC6 degradation in human HL-60 cells at 100 nM after 6 hrs by fluorescence microscopy analysis; assay type: cell-based
MOLM-13 [21] = assay: Cytotoxicity against human MOLM-13 cells assessed as reduction in cell viability incubated for 72 hrs by ATP based Celltiter-glo luminescent assay; assay type: functional; settings: MOLM-13, 72 h
[22] = target: T3, Protein deacetylase HDAC6 (Homo sapiens); assay: Induction of HDAC6 degradation in human HL-60 cells at 100 nM after 3 hrs by fluorescence microscopy analysis; assay type: cell-based

SMILES: Cc1nc2cc(NC(=O)CCOCCOCCOCCOCCNC(=O)COc3cccc4c3C(=O)N(C3CCC(=O)NC3=O)C4=O)ccc2n1Cc1ccc(C(=O)NO)cc1F (stereo not drawn)
IC50 [1]: 1490 nM
IC50 (Histone deacetylase 1 [2]): 1490 nM

SMILES: Cc1nc2cc(NC(=O)CCOCCOCCOCCNC(=O)COc3cccc4c3C(=O)N(C3CCC(=O)NC3=O)C4=O)ccc2n1Cc1ccc(C(=O)NO)cc1F (stereo not drawn)
IC50 [1]: 1310 nM
IC50 (Histone deacetylase 1 [2]): 1310 nM

SMILES: O=C(CCCCCCNC(=O)c1ccc(NC(=O)CCCCCCCNC(=O)COc2cccc3c2C(=O)N(C2CCC(=O)NC2=O)C3=O)cc1)NO (stereo not drawn)
Activity [3]: Active
Emax [4]: 84.5%
Activity (MOLM-13 [11]): Dde
Activity [12]: Active
Activity (Histone deacetylase 1 [13]): Active
Activity (MOLM-13 [14]): 13.4%
Activity [6]: Active
Activity [8]: Active
Activity (MOLM-13 [15]): 9.9%
Activity (MOLM-13 [16]): Dde
Activity [9]: Active
Activity (MOLM-13 [17]): Dde
Activity [18]: Active
Activity [10]: Active
Activity (MOLM-13 [19]): 7.5%
Activity [20]: Active
IC50 (MOLM-13 [21]): 17400 nM
Activity [22]: Active

SMILES: Cc1nc2cc(NC(=O)CCOCCOCCOCCOCCNC(=O)CNc3cccc4c3C(=O)N(C3CCC(=O)NC3=O)C4=O)ccc2n1Cc1ccc(C(=O)NO)cc1F (stereo not drawn)
IC50 [1]: 1420 nM
IC50 (Histone deacetylase 1 [2]): 1420 nM

SMILES: O=C(CCCCCCNC(=O)c1ccc(NC(=O)COCCOCCNC(=O)COc2cccc3c2C(=O)N(C2CCC(=O)NC2=O)C3=O)cc1)NO (stereo not drawn)
Activity [10]: Active

Continued by falling IC50 [1], values first:

Activity [3]: Active
Emax [4]: 92.8%
IC50 [1]: 647 nM
EC50 [5]: 5450 nM
Activity [6]: Active
DC50 [7]: 19.4 nM
Activity [8]: Active
Activity [9]: Active
Activity [10]: Active
IC50 (Histone deacetylase 1 [2]): 647 nM
SMILES: Cc1nc2cc(NC(=O)CCCCCCCNC(=O)COc3cccc4c3C(=O)N(C3CCC(=O)NC3=O)C4=O)ccc2n1Cc1ccc(C(=O)NO)cc1F (stereo not drawn)

IC50 [1]: 20.8 nM
IC50 (Histone deacetylase 1 [2]): 208 nM
SMILES: O=C(CCCCCCNC(=O)c1ccc(NC(=O)CCOCCOCCOCCOCCNC(=O)COc2cccc3c2C(=O)N(C2CCC(=O)NC2=O)C3=O)cc1)NO (stereo not drawn)

IC50 [1]: 17 nM
IC50 (Histone deacetylase 1 [2]): 161 nM
SMILES: O=C(CCCCCCNC(=O)c1ccc(NC(=O)CCOCCOCCOCCNC(=O)COc2cccc3c2C(=O)N(C2CCC(=O)NC2=O)C3=O)cc1)NO (stereo not drawn)

IC50 [1]: 15 nM
IC50 (Histone deacetylase 1 [2]): 186 nM
SMILES: O=C(CCCCCCNC(=O)c1ccc(NC(=O)CCOCCOCCOCCOCCNC(=O)CNc2cccc3c2C(=O)N(C2CCC(=O)NC2=O)C3=O)cc1)NO (stereo not drawn)

IC50 [1]: 12 nM
IC50 (Histone deacetylase 1 [2]): 155 nM
SMILES: O=C(CCCCCCNC(=O)c1ccc(NC(=O)COCCNC(=O)COc2cccc3c2C(=O)N(C2CCC(=O)NC2=O)C3=O)cc1)NO (stereo not drawn)
